# Data reported in paper doi:10.1101/049825v1, “Htm1p-Pdi1p is a folding sensitive mannosidase that marks N-glycoproteins for ER-associated protein degradation” (biorxiv, 2016).
# Target: T1, Htm1p-Pdi1p (Saccharomyces cerevisiae, UniProt P38888)
# T1 construct: gene MNL1; full-length HTM1 coding region with C-terminal 3xFLAG-HDEL tag (released by TEV), chromosomal TDH3 promoter, strain yJW1820; co-purified with endogenous Pdi1p, near 1:1; with Protein disulfide-isomerase
# T1 sequence (P38888 21-796): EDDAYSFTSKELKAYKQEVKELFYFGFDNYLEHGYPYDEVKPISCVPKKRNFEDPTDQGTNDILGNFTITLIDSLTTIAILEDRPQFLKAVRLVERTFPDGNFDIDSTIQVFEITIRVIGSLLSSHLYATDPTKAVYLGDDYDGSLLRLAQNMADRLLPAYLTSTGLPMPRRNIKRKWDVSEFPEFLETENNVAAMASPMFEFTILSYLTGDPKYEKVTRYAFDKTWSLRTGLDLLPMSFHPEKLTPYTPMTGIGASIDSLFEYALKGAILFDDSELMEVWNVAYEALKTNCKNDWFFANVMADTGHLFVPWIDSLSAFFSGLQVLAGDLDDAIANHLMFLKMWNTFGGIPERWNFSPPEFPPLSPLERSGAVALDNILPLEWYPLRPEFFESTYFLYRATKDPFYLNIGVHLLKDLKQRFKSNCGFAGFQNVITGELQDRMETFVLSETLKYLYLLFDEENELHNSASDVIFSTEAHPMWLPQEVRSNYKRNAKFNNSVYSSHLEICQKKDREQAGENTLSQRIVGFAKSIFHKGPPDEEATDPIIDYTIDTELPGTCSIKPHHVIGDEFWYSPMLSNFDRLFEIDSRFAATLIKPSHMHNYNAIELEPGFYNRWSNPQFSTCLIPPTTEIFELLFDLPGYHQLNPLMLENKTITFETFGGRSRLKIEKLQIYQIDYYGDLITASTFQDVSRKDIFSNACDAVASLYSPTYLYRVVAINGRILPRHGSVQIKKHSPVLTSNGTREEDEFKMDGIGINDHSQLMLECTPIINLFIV
# T1 sequence (P17967 29-522 partner): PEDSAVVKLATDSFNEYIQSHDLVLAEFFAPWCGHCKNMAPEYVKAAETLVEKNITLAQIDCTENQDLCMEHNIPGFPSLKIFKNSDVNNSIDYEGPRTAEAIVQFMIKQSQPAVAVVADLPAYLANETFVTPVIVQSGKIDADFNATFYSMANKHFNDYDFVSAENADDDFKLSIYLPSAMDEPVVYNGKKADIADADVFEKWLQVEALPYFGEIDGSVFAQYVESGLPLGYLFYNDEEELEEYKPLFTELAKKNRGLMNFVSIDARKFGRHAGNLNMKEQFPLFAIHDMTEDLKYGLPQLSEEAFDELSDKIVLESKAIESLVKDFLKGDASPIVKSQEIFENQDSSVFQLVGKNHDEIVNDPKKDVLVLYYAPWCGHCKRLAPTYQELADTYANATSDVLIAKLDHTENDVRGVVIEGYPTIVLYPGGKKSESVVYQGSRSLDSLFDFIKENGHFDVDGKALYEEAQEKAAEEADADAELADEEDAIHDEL
# Test: MALDI-TOF MS glycan profiling of CPY* (Man8 to Man7 conversion)
# Type: biochemical
# Conditions: glycoprotein substrate CPY* 2 μM, enzyme 0.1 μM, 2 mM CaCl2, pH 7.0, 30°C, 20 h; inhibitor concentration not given
compound,measurement,value
OC[C@H]1NC[C@@H](O)[C@@H](O)[C@@H]1O [1-deoxymannojirimycin],MALDI-TOF MS glycan profiling of CPY* (Man8 to Man7 conversion),Both chemicals inhibited the generation of Man7 on CPY*
